Tests used:
NO production = assay: stimulation of NO production
blood vessels [1] = assay: vasodilation of blood vessels
blood vessels [2] = assay: inhibition of contraction
β-amyloid = assay: inhibition of β-amyloid
rat brain = assay: infarct volume after middle cerebral artery occlusion (MCAO); format: in vivo
Protocol: Adult male rats weighing 200-250 g were anesthetized. Focal cerebral ischemia was induced by ligature of the left common carotid artery and occlusion of the ipsilateral distal middle cerebral artery (MCAO). […] Rats subjected to sham MCAO operation served as control. To determine infarct volume, the brains were removed 48 hours after MCAO and a series of coronal brain slices were obtained and stained with 1% 2,3,5-triphenyl-tetrazolium chloride in 0.1M phosphate buffer. The infarct volume was determined by adding the infarct volumes, which were unstained by the dye.

platelets = assay: epinephrine-induced platelet aggregation; format: cell-based, human
Excerpt: During the study, optical density was continuously recorded.

[3] = patients; cited from earlier work
[4] = cited from earlier work
human platelets [5] = assay: collagen-induced human platelet aggregation, preincubation with drug; format: cell-based; conditions: 15 min preincubation; for peak aggregation: collagen (baseline around 89%)
Protocol: (§1) 500 microliter of whole blood was diluted with equal volume of 0.9% sodium chloride and prewarmed at 37° C. for 5 minutes. For optical studies, platelet rich plasma blood was mixed gently and immediately centrifuged at 180 g for 10 min to obtain platelet-rich plasma (PRP). Platelet poor plasma (PPP) was obtained by centrifugation at 1800 g for 15 minutes at room temperature. The platelet concentration in the PRP was adjusted to approximately 250×10^9 cells/l using PPP. Readings were taken at 37° C. at a stirring speed of 1200 rpm.
(§2) Aggregation agonists were used at a final concentration of 2.0×10^−5 M for ADP, 0.19 mg/ml for collagen, 500 μg/ml for arachidonic acid, and 1×10^−4 M for epinephrine. During the study, optical density was continuously recorded. The 0% and 100% aggregation levels were set with PRP and PPP, respectively. The maximal percentage of platelet aggregation was calculated as the light transmission between platelet-rich and platelet-poor plasma (100%). When a stable baseline was obtained with 450 μl of PRP, 50 μl of one of the aggregation-inducing agents was added. The maximum height and slope of the aggregation curves were determined. After the electrode was immersed in the sample, platelet aggregation to various agonists (collagen, ADP, arachidonic acid or epinephrine) was measured in ohms of impedance. The lag phase was defined as the delay time occurring between the addition of collagen and the beginning of the aggregation curve.
Blood samples were preincubated in 50 μM or 100 μM rasagiline, a MAO-B inhibitor, for 15 minutes and aggregation stimulated using collagen. […] Aggregation onset was also delayed by treatment with rasagiline.

human platelets [6] = assay: ADP-induced human platelet aggregation, preincubation with drug; format: cell-based; conditions: data not shown
Protocol: as §1
as §2, with “The lag phase was defined as the delay time occurring between the addition of collagen and the beginning of the aggregation curve.” left out

C#CCN(C)[C@H](C)Cc1ccccc1 [1-deprenyl, L-deprenyl]
ability to stimulate NO production (NO production): stimulate NO production
lowest concentration with stimulatory effect on NO production (NO production): 1 µM
ability to dilate blood vessels (blood vessels [1]): dilate blood vessels
dose causing rapid NO-mediated endothelium-dependent vasodilation (blood vessels [1]; low doses): ≤ 10 µM
ability to inhibit contraction (blood vessels [2]): inhibit contraction
ability to inhibit β-amyloid (β-amyloid): inhibit β-amyloid
blood vessel disruption and bleeding (rat brain; following 1-deprenyl administration): reduced
platelet aggregation induced by epinephrine (platelets): inhibited the platelet aggregation

Cl.NCCNC(=O)c1ccc(Cl)cc1 [RO-16-6491, N-(2-aminoethyl)4-chlorobenzamide hydrochloride]
ability to stimulate NO production (NO production): stimulate NO production
ability to dilate blood vessels (blood vessels [1]): dilate blood vessels
ability to inhibit contraction (blood vessels [2]): inhibit contraction
ability to inhibit β-amyloid (β-amyloid): inhibit β-amyloid

Cl.NCCNC(=O)c1ncsc1-c1cccc(F)c1 [RO-41-1049, N-(2-aminoethyl)-5-(3-fluorophenyl)-4-thiazolecarboxamide hydro-chloride]
ability to stimulate NO production (NO production): stimulate NO production
ability to dilate blood vessels (blood vessels [1]): dilate blood vessels
ability to inhibit contraction (blood vessels [2]): inhibit contraction
ability to inhibit β-amyloid (β-amyloid): inhibit β-amyloid

CC(=O)Oc1ccccc1C(=O)O [aspirin, Acetylsalicylic acid]
relative risk reduction of CVD [3]: 25%
reduction of infarct size (rat brain; aspirin 30 mg/kg intraperitoneally 2 hours prior to MCAO, brains 48 hours after MCAO, vs untreated control): about 30%

COC(=O)[C@H](c1ccccc1Cl)N1CCc2sccc2C1 [clopidogrel]
share of drug converted to active metabolites in the liver ([4]; by cytochrome P450 isoforms): 15%
share of prodrug converted into inactive metabolites ([4]; in vivo): 85%

C#CCN(C)CCCOc1ccc(Cl)cc1Cl [clorgyline]
ability to stimulate NO production (NO production): stimulate NO production
ability to dilate blood vessels (blood vessels [1]): dilate blood vessels
ability to inhibit contraction (blood vessels [2]): inhibit contraction
ability to inhibit β-amyloid (β-amyloid): inhibit β-amyloid

C#CCN(C)Cc1ccccc1 [pargyline]
ability to stimulate NO production (NO production): stimulate NO production
ability to dilate blood vessels (blood vessels [1]): dilate blood vessels
ability to inhibit contraction (blood vessels [2]): inhibit contraction
ability to inhibit β-amyloid (β-amyloid): inhibit β-amyloid

C#CCN[C@@H]1CCc2ccccc21 [rasagiline]
aggregation onset (human platelets [5]; 50 μM or 100 μM, collagen): delayed
peak aggregation (human platelets [5]; 50 μM): 35%
peak aggregation (human platelets [5]; 100 μM): negligible levels
inhibition at 100 µM (human platelets [6]): 69%
